Laboratory results published in patent US20260250262A1, “NEW COMPOUND AND PHARMACEUTICAL COMPOSITION COMPRISING SAME” (SAMJIN PHARMACEUTICAL CO., LTD., priority 2023, published 2026).

Experiments:
[1] = tested on: HCT-116 cell lines; assay: Cellular NAD measurement assay (NAD/NADH-Glo); assay type: cell-based; conditions: Homo sapiens; HCT-116, 24 hours treatment, intracellular NAD+/NADH level
Protocol: With regard to HCT-116 cell lines, the decrease in intracellular NAD+ and NADH levels due to the inhibition of NAMPT enzyme activity by compounds was evaluated using NAD/NADH-Glo™ Assay (Promega, G9072) from Promega. The cells were incubated using DMEM (Gibco, 11995-065) medium containing 10% FBS. The HCT-116 cells were incubated for 24 hours after being distributed at a density of 2,500 cells per well in a 96-well plate, and were treated with the drugs using serum-free DMEM. First, the compounds were dissolved in 100% dimethyl sulfoxide (DMSO), and then diluted in the culture medium so that the final concentration of DMSO might reach 0.5%, and treated with the drugs. The final concentration range of the compounds was 0.1 nM to 100 nM. After that, they were further incubated for 24 hours under conditions of 37° C. and CO2 5%. To conduct the NAD/NADH-Glo™ Assay, the culture medium of drug-treated cells was removed, 50 μL of DPBS was treated per well, and left at room temperature for five minutes. The required amount of NAD/NADH-Glo™ Detection Reagent (Reconstituted Luciferin Detection Reagent 1 mL, Reductase 5 μL, Reductase Substrate 5 μL, NAD Cycling Enzyme 5 μL, NAD Cycling Substrate 25 μL) was prepared according to the manufacturer's manual and treated in an amount of 50 μL per well. After incubating for two minutes at 400 rpm in a plate shaker for cell lysis, the cells were incubated for 30 minutes at room temperature, and luminescence was measured. NAD+/NADH levels were calculated by subtracting the measurement value of the blank well without cells from the measurement value of all wells and taking the 0.5% DMSO-treated control as 100%.

[2] = tested on: NCI-N87 (gastric cancer); assay: Tumor cytotoxicity assay (MTT), NCI-N87; assay type: cell-based; conditions: Homo sapiens, NCI-N87, 72 hours
Protocol: (§1) First, the compounds were prepared in 100% dimethyl sulfoxide (DMSO) at concentrations of 0.02 μM to 200 μM, and then diluted in the culture medium so that the final concentration of DMSO might reach 0.5%, and treated with the drugs. The final concentration range of the compounds was 0.1 nM to 1000 nM. After that, they were further incubated for 72 hours under conditions of 37° C. and CO2 5%. […] The cell viability (%) was relatively determined by subtracting the reference 650 nm optical density (O.D.) from the 570 nm O.D., and the 0.5% DMSO-treated control was set as 100% as the standard.

[3] = tested on: HCT-116 (colorectal cancer); assay: Tumor cytotoxicity assay (MTT), HCT-116; assay type: cell-based; conditions: Homo sapiens, HCT-116, 72 hours
Protocol: as §1

[4] = biological target: T1, Recombinant NAMPT protein (Homo sapiens, UniProt P43490); assay: NAMPT enzyme inhibition assay (BPS Bioscience NAMPT Inhibitor Screening Assay Kit); assay type: biochemical; conditions: 30 min pre-incubation, 2 h at 30° C., fluorescence
T1 construct: purchased BPS bioscience #7176-1
Protocol: Recombinant NAMPT protein was added to each well of a black 96-well plate, and dilution buffer was added to a blank well instead of NAMPT protein. A 5× concentrated compound solution was added and pre-incubated at room temperature (approximately 22° C.) for 30 minutes before the start of the reaction so that the compound and protein might bind before the enzyme reaction. At this time, the concentration of NAMPT protein was adjusted and used according to the enzyme activity of each protein lot within the final concentration range of 4-10 ng/μl, and the test compound was serially diluted at a ratio of 1:3 from 1000 nM to 1 nM, and experiments were conducted with n=2 for about seven concentrations. […] The NAMPT enzyme activity (%) was calculated by subtracting the measurement value of the blank well without NAMPT protein from the measurement value of all wells, and then taking the measurement value of the control well without the compound as 100%.

T1 sequence (P43490 whole entry): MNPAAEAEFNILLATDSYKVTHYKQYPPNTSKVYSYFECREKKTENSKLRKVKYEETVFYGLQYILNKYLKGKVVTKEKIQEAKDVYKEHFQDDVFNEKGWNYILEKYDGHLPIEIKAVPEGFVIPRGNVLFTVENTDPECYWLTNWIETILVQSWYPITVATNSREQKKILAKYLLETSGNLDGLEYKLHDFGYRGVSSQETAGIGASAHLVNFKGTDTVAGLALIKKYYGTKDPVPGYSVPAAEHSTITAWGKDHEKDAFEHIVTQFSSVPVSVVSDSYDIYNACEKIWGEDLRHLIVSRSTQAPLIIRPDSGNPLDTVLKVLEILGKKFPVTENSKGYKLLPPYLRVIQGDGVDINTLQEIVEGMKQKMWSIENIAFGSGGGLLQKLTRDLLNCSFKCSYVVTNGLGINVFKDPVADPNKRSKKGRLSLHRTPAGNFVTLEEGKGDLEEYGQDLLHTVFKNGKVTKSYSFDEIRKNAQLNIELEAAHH

| Structure (SMILES) | IC50 [1] | CC50 [2] | CC50 [3] | IC50 [4] |
| --- | --- | --- | --- | --- |
| O=C(NCCc1cccnc1)Nc1ccc(-c2ccc(N3CCNCC3)cc2)c(C#Cc2ccc(F)cc2)c1 [Compound 13, 1-(2-((4-fluorophenyl)ethynyl)-4′-(piperazin-1-yl)-[1,1′-biphenyl]-4-yl)-3-(2-(pyridin-3-yl)ethyl)urea] | ≤ 10 nM | < 30 nM | < 30 nM | < 500 nM |
| Cc1nc2cc(-c3ccc(NC(=O)NCCc4cccnc4)cc3C#Cc3ccc(F)cc3)ccc2c(=O)n1CCN [Compound 186] | ≤ 10 nM | 30 to 100 nM | < 30 nM | < 500 nM |
| O=C(NCc1ccn2ccnc2c1)Nc1ccc(-c2ccncc2)c(C#Cc2ccc(F)cc2)c1 [Compound 4, 1-(3-((4-fluorophenyl)ethynyl)-4-(pyridin-4-yl)phenyl)-3-(imidazo[1,2-a]pyridin-7-ylmethyl)urea] | ≤ 10 nM | < 30 nM | < 30 nM | < 500 nM |
